One test relates to SMN protein. As to the kind of experiment: SMN-specific antibody staining of SMA patient and parent fibroblasts (FIG. 2C). It counts as cell-based. The note with it: human fibroblasts derived from SMA patients and their parents. From the text: FIG. 2A is a Western blot analysis showing the levels of SMN in cells expressing wild-type SMN and the dominant negative form of Cullin1 protein. […] FIGS. 2D and 2E are dose response curves of nuclear (FIG. 2D) and cytoplasmic (FIG. 2E) SMN levels in SMA patient and parent fibroblasts treated with MLN4924 at the indicated time points. The error bars in FIGS. 2D and 2B indicate ±S.E.M. SMN levels are normalized to DMSO control for each cell line at each time point.

Test [1] has as its system human motor neurons derived from ALS patient iPS cells. Kind of test: Survival of human motor neurons derived from wild-type and ALS patient ES or iPS cells (FIG. 11). It counts as cell-based. The note with it: wild-type (HUES3, 18a) and ALS patient (47a) lines on glia, treated 14 days after 7 days in culture. The text has this:
FIG. 11A are immune stains of motor neurons derived from human wild-type (HUES3, 18a) and ALS patient (47a) ES or iPS cells. […] Representative images are shown for the Hues3 line which expresses GFP under the hb9 promoter shown is green, human nuclear antigen (hNA) shown in pink, and the nuclear marker Hoechst is shown in blue. […] Error bars indicate ±S.E.M.

The subject of the next test is motor neurons. As to the kind of experiment: Survival of wild type and ALS patient motor neurons (FIG. 17). It counts as cell-based, human. Conditions: BJ RIPS (WT), 18A (WT), 27B (SOD1), 31D (TDP43), A19 (C9ORF).
For test [2], the system named is human motor neurons. Kind of test: Motor neuron survival in human motor neurons (summary of data). It counts as cell-based. The text has this:
(§1) As shown herein, MLN increases SMN in human MNs, both in measures of average SMN and # of high SMN expressors. […] The effect on proliferation can be dissociated, for example, by using AraC in protocols for differentiation of cells into motor neurons.

For test [3], the system named is motor neurons derived from ES cells. As to the kind of experiment: Survival of ES cell-derived hb9-GFP motor neurons, time-course imaging (FIG. 7). It counts as cell-based, mouse. As to the method:
FIG. 7A is a line graph showing the results of a time-course analysis of motor neurons derived from ES cells expressing GFP under the motor neuron specific hb9 promoter performed with imaging every 6 hours for a 7 day period. […] The error bars indicate ±S.E.M.

The next test relates to hb9_RFP motor neurons. As to the kind of experiment: SMN knockdown (shRNA lentivirus) induced motor neuron death (FIG. 8A-8B). It counts as cell-based. Conditions: SMN knockdown using shRNA lentivirus in hb9_RFP motor neurons. From the text:
(§2) MLN4924 is able to reverse the effects of SMN knockdown on motor neuron death. Representative images are shown.

Test [4] concerns proliferation in the culture. As to the kind of experiment: Proliferation in motor neuron cultures. It counts as cell-based.
Text: as §1

Test [5] has as its system SMN. As to the kind of experiment: Histogram analysis of SMN expression in motor neurons under SMN RNAi (FIG. 8C). It counts as cell-based.
Text: as §2

In test [6] the test system is SMN. Kind of test: SMN in human motor neurons (summary of data). It counts as cell-based. Conditions: human MNs.
Text: as §1

Test [7] concerns SMN. As to the kind of experiment: Immunocytochemical analysis of SMN in motor neurons derived from mouse embryonic stem cells (FIG. 6D-6G). It counts as cell-based. The text has this: FIGS. 6B and 6C are bar graphs quantifying the results in FIG. 6A. […] SMN is shown in red and GFP driven by the motor neuron specific promoter hb9 is shown in green. […] High SMN expressor is defined as those motor neurons that harbor SMN levels greater than the top 10th percentile as defined in the DMSO control. Error bars indicate ±S.E.M.

Another test relates to SMN transcript. Kind of test: Quantitative RT-PCR of SMN transcript in motor neuron cultures (FIG. 6C). It counts as cell-based. The note with it: compared to control.
Test [8] relates to SMN. As to the kind of experiment: SMN immunostaining in SMA-like mouse motor neurons (FIG. 9C-9D). The note with it: A2 mouse ES-derived motor neurons, treated four days. It counts as cell-based. As to the method: (§3) FIG. 9A are images of immunostains of motor neurons derived from the ES-cells of A2 mice that lack a functional copy of mSMN but are supplemented with two copies of hSMN2 and thus are deficient but not completely lacking SMN protein were treated with MLN4924 for four days, SMN is shown in red and the hb9 promoter driven-GFP is shown in green. […] The error bars indicate ±S.E.M.

For test [9], the system named is SMN. As to the kind of experiment: Western blot of SMN in lysates of motor neuron cultures (FIG. 6A-6B). The note with it: treated for 3 days, DMSO as control. It counts as cell-based. For orientation: Immunoblotting shows a protein as a band on a membrane.
The subject of a further test is Gem counts. Kind of test: Gem counts in wild type and ALS patient motor neurons (FIG. 18). It counts as cell-based, human. Conditions: motor neurons 18A (WT), A19 (C9 ORF), 31D (TDP43), 27B (SOD1).
For test [10], the system named is SMN-deficient motor neurons. Kind of test: Survival of SMA-like mouse motor neurons derived from ES cells of A2 mice (FIG. 9B). It counts as cell-based. Conditions: A2 mouse ES-derived motor neurons (no mSMN, two copies of hSMN2), treated four days. As to the method:
as §3

Test [11] deals with SMN-deficient human motor neurons. As to the kind of experiment: Survival of human motor neurons derived from SMA patient iPS cells (FIG. 10C, 10E). The note with it: SMA Type II (1-51) and SMA Type I iPS-derived motor neurons on glia with Ara C, 7 days. It counts as cell-based. The text has this: (§4) Representative images are shown for Type II motor neurons. SMN is shown in red, the motor neuron marker islet 1 is shown in green, and the nuclear marker Hoechst is shown in blue. […] Error bars indicate ±S.E.M.

Test [12] concerns SMN. As to the kind of experiment: SMN levels in wild type and patient iPS-derived motor neurons (FIG. 16). It counts as cell-based, human. Conditions: motor neurons BJ RIPS (WT), A19 (C9 ORF), 27B (SOD1), 1-51N (SMA type II).
A further test concerns Brn2+ neurons. As to the kind of experiment: Survival of Brn2+ neurons (FIG. 13). It counts as cell-based. The note with it: compared to DMSO control.
Test [13] has as its system SMN. Kind of test: SMN immunostaining in human motor neurons derived from SMA patient iPS cells (FIG. 10B, 10D, 10F). It counts as cell-based. The note with it: SMA Type II (1-51) and SMA Type I iPS-derived motor neurons on glia with Ara C, 7 days.
Text: as §4

For test [14], the system named is human motor neurons. As to the kind of experiment: SMN expression distribution in human motor neurons treated with Trichostatin A (FIG. 14). It counts as cell-based. Conditions: compared to a control.

On to `NS(=O)(=O)OC[C@@H]1C[C@@H](n2ccc3c(N[C@H]4CCc5ccccc54)ncnc32)C[C@@H]1O` [MLN4924, ((1S,2S,4R)-4-(4-(((S)-2,3-dihydro-1H-inden-1-yl)amino)-7H-pyrrolo[2,3-d]pyrimidin-7-yl)-2-hydroxycyclopentyl)methyl sulfamate], for which, in the test on SMN protein, the “SMN protein (SMN-specific antibody staining)” value is “stabilization of SMN protein”. Moreover, the “number of surviving motor neurons” value in [1], in test [10] and in test [11] was “significantly increases” each time. In the test with motor neurons, the “survival of motor neurons” value is listed as “increases the survival”. Also, the “survival of motor neurons derived from ALS patients and their parents” value with human motor neurons [2] is given as “promotes survival”. Also, the “survival of motor neurons derived from SMA patients and their parents” value in the test with human motor neurons [2] is recorded as “promotes survival”. Moreover, the motor neuron survival result in the test on human motor neurons [2] (human motor neurons) is reported as “promote motor neuron survival”. Besides, the “MN survival, preliminary results” value in the test on human motor neurons [2] (preliminary, believed to depend on the amount of proliferation in the culture) is given as “variable”. In addition, in test [3] (imaging every 6 hours for a 7 day period), the “motor neuron survival (time-course analysis)” value is given as “significantly increases”. In test [3] (mouse-ES derived motor neurons), the “motor neuron survival (dose response)” value is listed as “dose-dependent significant increase”. Further, the “effect of SMN RNAi on inducing motor neuron death” value with hb9_RFP motor neurons is “significantly inhibits”. For the same compound, the proliferation result in test [4] is listed as “inhibits proliferation”. For the same compound, the “number of high SMN expressing motor neurons” value in the test with SMN [5] is “increases”; in the test on SMN [7] (high SMN expressor = SMN levels greater than the top 10th percentile of DMSO control), “dose-dependent effect”; in the test on SMN [8] it was “significantly increases”; in the test on SMN [13], “significantly increases”. For the same compound, the “# of high SMN expressors” value in the test with SMN [6] is on record as “increases”. Besides, the “average SMN” value in the test on SMN [6] is on record as “increases”. Besides, the “amount of low SMN expressors (histogram analysis)” value in the test on SMN [7] (mouse ES-derived motor neurons) is reported as “without affecting”. For the same compound, in the test with SMN [7] (mouse ES-derived motor neurons), the “number of motor neurons with higher levels of SMN expression (histogram analysis)” value is on record as “increases”. For the same compound, the “average intensity of SMN” value with SMN [7] (mouse ES-derived motor neurons, treated at plating, fixed four days later, increasing levels of MLN4924) is given as “significantly increases in a dose-dependent manner”. In the test on SMN transcript, the “SMN transcript levels (quantitative RT-PCR)” value is on record as “not significantly affected”. The SMN levels result is “significantly increases” with SMN [8], “increases SMN levels” in the test on SMN [12] and “significantly increases” in the test with SMN [13]. Besides, the “SMN levels (Western blot)” value with SMN [9] was “significantly increased”. Further, the Gem counts entry in the test on Gem counts was “increases Gem counts”. Also, the “survival of Brn2+ neurons” value with Brn2+ neurons was “increases survival”.
For the compound `CC(/C=C/C(=O)NO)=C\[C@@H](C)C(=O)c1ccc(N(C)C)cc1` [Trichostatin A], in the test on human motor neurons [14], the “number of low SMN expressing motor neurons” value is reported as “selectively reduces”.

(Values after patent publication US20150164901A1, “COMPOUNDS, COMPOSITIONS AND METHODS FOR TREATING OR PREVENTING NEURODEGENERATIVE DISORDERS” (President and Fellows of Harvard College, priority 2012, published 2015).)
